Measured values published in US10897901B2, “Herbicidal composition” (FMC Corporation, priority 2007, dated 2021).

Legend:
Assay type in all cases: in vivo
[1] = system: White Clover (Trifolium repens); assay: Example 1 post-emergent turf plot test, clover; conditions: 0.75 lb ai/acre
Method: (§1) The experimental design used randomized plots with post-emergent treatment and three replications per test trial. The size of each experimental plot was 4 feet by 6 feet. The application of each test composition was performed with pressurized back-pack sprayers, calibrated to spray 200 gallons per acre. Test compositions containing sulfentrazone (DISMISS™ Turf Herbicide), quniclorac, (FACET® 75 DF herbicide) or a mixture of sulfentrazone and quinclorac in a 1:3 ratio, prepared as described above, were diluted with water to provide the appropriate test rate concentrations.
The control of weeds was evaluated in each experimental plot from 7 to 41 days after treatment (DAT) of each test rate. The results, shown as an average of the replications, were compared with results observed in untreated control plots in the same trials.

[2] = system: Yellow Nutsedge (Cyperus esculentus); assay: Example 2 post-emergent turf plot test, nutsedge; conditions: 0.75 lb ai/acre
Method: as §1, with “quinclorac,” for “quniclorac,”, “one to three” for “1:3”
(§2) The control of weeds was evaluated in each experimental plot from 1 to 27 days after treatment (DAT) of each test rate. The results, shown as an average of the replications, were compared with results observed in untreated control plots in the same trials.

[3] = system: Field Violet (Viola arvensis); assay: Example 2 post-emergent turf plot test, violet; conditions: 0.75 lb ai/acre
Method: as §1, with “quinclorac,” for “quniclorac,”, “one to three” for “1:3”
as §2

[4] = system: Hemp Sesbania (Sesbania exaltata); assay: Example 4 post-emergence greenhouse pot test, hemp sesbania
Method: Test compositions containing sulfentrazone (75 DF formulation), quniclorac, (DRIVE® 75 DF Herbicide) or mixtures of sulfentrazone and quinclorac at ratios of 1:1 to 1:5, were diluted with water to provide the appropriate test rate concentrations. A nonionic surfactant (0.25%) was added to each test solution. The test weeds include crabgrass (Digitaria sp), Chickweed (Stellaria media), Hemp Sesbania (Sesbania exaltata), Kochia (Kochia scoparia), Ivyleaf Morningglory (Ipomoea hederacea), Redroot Pigweed (Amaranthus retroflexus) and yellow nutsedge (Cyperus esculentusi).
(§3) For post-emergence testing, three disposable 3 inch square pots for each rate of application of each herbicide were filled with a soil, comprised of peat moss, vermiculite, bark ash, pine bark, limestone and a wetting agent, to which 8 to 10 seeds were planted. The pots were placed in a greenhouse and watered daily, thus allowing the seeds to germinate and the foliage to develop for 22 days, 3 months for Kochia.
(§4) Pots designated for treatment were placed on a conveyor belt and the conveyor belt fed under a spray nozzle mounted about ten inches above the foliage. The spray of herbicidal solution was commenced and once stabilized; the pots were passed under the spray at a speed to receive a coverage equivalent of 30 gallons per acre. The application rates are those shown in Table 4 below for the individual herbicidal solutions and the mixture of sulfentrazone and quinclorac. The post-emergence pots were immediately placed in the green-house and not watered until 24 hours after treatment with the test solution. Thereafter they were regularly watered at ground level. The control of weeds was evaluated in each experimental test from 2 to 20 days after treatment (DAT). The results, shown as an average of the replications, were compared with results observed in untreated control pots in the same tests.
(§5) Percent control was determined by a method similar to the 0 to 100 rating system disclosed in “Research Methods in Weed Science,” 2nd ed., B. Truelove, Ed.; Southern Weed Science Society; Auburn University, Auburn, Ala., 1977.

[5] = system: Red River crabgrass (Digitaria ciliaris); assay: Example 3 post-emergence greenhouse pot test, crabgrass
Method: Test compositions containing sulfentrazone (DISMISS™ Turf Herbicide), quniclorac, (DRIVE® 75 DF Herbicide) or mixture of sulfentrazone and quinclorac in a three to one ratio, prepared as described above, were diluted with water to provide the appropriate test rate concentrations. A nonionic surfactant (0.25%) was added to each test solution.
The test weeds include Red River crabgrass (Digitaria ciliaris) and yellow nutsedge (Cyperus esculentusi).
as §3, with “develop.” for “develop for 22 days, 3 months for Kochia.”
as §4, with “Table 3” for “Table 4”, “from 1” for “from 2”, “to 22” for “to 20”
as §5

## O=C(O)c1c(Cl)ccc2cc(Cl)cnc12 [B, 3,7-dichloro-8-quinolinecarboxylic acid]
[1]; 7 DAT
  Percent Control: 50%
[1]; 14 DAT
  Percent Control: 50%
[1]; 21 DAT
  Percent Control: 50%
[1]; 28 DAT
  Percent Control: 63%
[2]; 7 DAT
  Percent Control: 83%
[2]; 14 DAT
  Percent Control: 54%
[2]; 21 DAT
  Percent Control: 37%
[3]; 7 DAT
  Percent Control: 46%
[3]; 14 DAT
  Percent Control: 48%
[3]; 21 DAT
  Percent Control: 51%
[4]; 0.25 lb ai/acre, 2 DAT
  Percent Control: 0%
[4]; 0.25 lb ai/acre, 7 DAT
  Percent Control: 0%
[4]; 0.25 lb ai/acre, 14 DAT
  Percent Control: 5%
[4]; 0.25 lb ai/acre, 20 DAT
  Percent Control: 20%
[4]; 0.5 lb ai/acre, 2 DAT
  Percent Control: 0%
[4]; 0.5 lb ai/acre, 7 DAT
  Percent Control: 10%
[4]; 0.5 lb ai/acre, 14 DAT
  Percent Control: 20%
[4]; 0.5 lb ai/acre, 20 DAT
  Percent Control: 60%
[4]; 0.75 lb ai/acre, 2 DAT
  Percent Control: 0%
[4]; 0.75 lb ai/acre, 7 DAT
  Percent Control: 0%
[4]; 0.75 lb ai/acre, 14 DAT
  Percent Control: 10%
[4]; 0.75 lb ai/acre, 20 DAT
  Percent Control: 60%
[4]; 1.0 lb ai/acre, 2 DAT
  Percent Control: 10%
[4]; 1.0 lb ai/acre, 7 DAT
  Percent Control: 10%
[4]; 1.0 lb ai/acre, 14 DAT
  Percent Control: 20%
[4]; 1.0 lb ai/acre, 20 DAT
  Percent Control: 60%
[4]; 1.25 lb ai/acre, 2 DAT
  Percent Control: 0%
[4]; 1.25 lb ai/acre, 7 DAT
  Percent Control: 0%
[4]; 1.25 lb ai/acre, 14 DAT
  Percent Control: 10%
[4]; 1.25 lb ai/acre, 20 DAT
  Percent Control: 50%
[5]; 1-2 leaf stage, 11 days old, 0.375 lb ai/acre, 1 DAT
  Percent Control: 0%
[5]; 1-2 leaf stage, 11 days old, 0.375 lb ai/acre, 3 DAT
  Percent Control: 5%
[5]; 1-2 leaf stage, 11 days old, 0.375 lb ai/acre, 7 DAT
  Percent Control: 5%
[5]; 1-2 leaf stage, 11 days old, 0.375 lb ai/acre, 14 DAT
  Percent Control: 0%
[5]; 1-2 leaf stage, 11 days old, 0.375 lb ai/acre, 21 DAT
  Percent Control: 0%
[5]; 1-2 leaf stage, 11 days old, 0.75 lb ai/acre, 1 DAT
  Percent Control: 0%
[5]; 1-2 leaf stage, 11 days old, 0.75 lb ai/acre, 3 DAT
  Percent Control: 10%
[5]; 1-2 leaf stage, 11 days old, 0.75 lb ai/acre, 7 DAT
  Percent Control: 5%
[5]; 1-2 leaf stage, 11 days old, 0.75 lb ai/acre, 14 DAT
  Percent Control: 0%
[5]; 1-2 leaf stage, 11 days old, 0.75 lb ai/acre, 21 DAT
  Percent Control: 0%
[5]; 1-2 leaf stage, 11 days old, 1.0 lb ai/acre, 1 DAT
  Percent Control: 0%
[5]; 1-2 leaf stage, 11 days old, 1.0 lb ai/acre, 3 DAT
  Percent Control: 10%
[5]; 1-2 leaf stage, 11 days old, 1.0 lb ai/acre, 7 DAT
  Percent Control: 10%
[5]; 1-2 leaf stage, 11 days old, 1.0 lb ai/acre, 14 DAT
  Percent Control: 2%
[5]; 1-2 leaf stage, 11 days old, 1.0 lb ai/acre, 21 DAT
  Percent Control: 2%
[5]; 3-4 leaf stage, 1-2 tillers, 14 days old, 0.375 lb ai/acre, 1 DAT
  Percent Control: 0%
[5]; 3-4 leaf stage, 1-2 tillers, 14 days old, 0.375 lb ai/acre, 3 DAT
  Percent Control: 5%
[5]; 3-4 leaf stage, 1-2 tillers, 14 days old, 0.375 lb ai/acre, 7 DAT
  Percent Control: 5%
[5]; 3-4 leaf stage, 1-2 tillers, 14 days old, 0.375 lb ai/acre, 14 DAT
  Percent Control: 0%
[5]; 3-4 leaf stage, 1-2 tillers, 14 days old, 0.375 lb ai/acre, 21 DAT
  Percent Control: 0%
[5]; 3-4 leaf stage, 1-2 tillers, 14 days old, 0.75 lb ai/acre, 1 DAT
  Percent Control: 0%
[5]; 3-4 leaf stage, 1-2 tillers, 14 days old, 0.75 lb ai/acre, 3 DAT
  Percent Control: 5%
[5]; 3-4 leaf stage, 1-2 tillers, 14 days old, 0.75 lb ai/acre, 7 DAT
  Percent Control: 5%
[5]; 3-4 leaf stage, 1-2 tillers, 14 days old, 0.75 lb ai/acre, 14 DAT
  Percent Control: 5%
[5]; 3-4 leaf stage, 1-2 tillers, 14 days old, 0.75 lb ai/acre, 21 DAT
  Percent Control: 0%
[5]; 3-4 leaf stage, 1-2 tillers, 14 days old, 1.0 lb ai/acre, 1 DAT
  Percent Control: 0%
[5]; 3-4 leaf stage, 1-2 tillers, 14 days old, 1.0 lb ai/acre, 3 DAT
  Percent Control: 5%
[5]; 3-4 leaf stage, 1-2 tillers, 14 days old, 1.0 lb ai/acre, 7 DAT
  Percent Control: 10%
[5]; 3-4 leaf stage, 1-2 tillers, 14 days old, 1.0 lb ai/acre, 14 DAT
  Percent Control: 5%
[5]; 3-4 leaf stage, 1-2 tillers, 14 days old, 1.0 lb ai/acre, 21 DAT
  Percent Control: 5%
